The source of these data is the supplement of paper PMC11061612.

Common to all, as to experiment: Bliss excess, mean over the matrix (fraction); higher = more synergy
The subject of assay [1] is NCI-H1650 (Lung Adenocarcinoma). The method, boiled down: (§1)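 Bliss excess equals the observed combination effect minus the expected value EA + EB − EA·EB, where EA and EB are the effects of each agent alone. Combination Emax is the second-highest inhibition within the matrix. Inhibition was scaled from CellTiter-Glo 2.0 luminescence, with 0 set by vehicle wells and 1 by blank wells, after 72 hours of two-drug dosing of cells plated in 1536-well plates.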

Assay [2] relates to NCI-H2141 (Small Cell Lung Carcinoma). The method, boiled down:
as §1

Assay [3] deals with MDST8 (Colorectal Carcinoma). In short, it runs like this:
as §1

The subject of assay [4] is CAPAN-2 (Pancreatic Carcinoma). The method, boiled down: as §1
The subject of assay [5] is BICR22 (Oral Cavity Carcinoma). In short, it runs like this:
as §1

The test system of assay [6] is COLO-320-HSR (Colorectal Carcinoma). In short, it runs like this: as §1

With `COc1nnc2ccc(N3CCC(c4ccc(OCCN5CCN(C)C(=O)[C@H]5C)cc4)CC3)nn12` [AZD5153] + CCN(CCO)CCCOc1ccc2c(Nc3cc(CC(=O)Nc4cccc(F)c4)[nH]n3)ncnc2c1 [AZD2811] (first compound max 1 µM, 7x7, partner max 1 µM), the Bliss excess in assay [1] was -0.0868; in assay [2], 0.0226; in assay [3], 0.0761; in assay [4], -0.0286; in assay [5] it was -0.118; in assay [6], -0.0417.

As for `COc1nnc2ccc(N3CCC(c4ccc(OCCN5CCN(C)C(=O)[C@H]5C)cc4)CC3)nn12` [AZD5153] + C[C@@H]1COCCN1C2=NC(=NC(=C2)C3(CC3)[S@](=N)(=O)C)C4=C5C=CNC5=NC=C4 [AZD6738] (first compound max 1 µM, 7x7, partner max 10 µM), the Bliss excess in assay [1] was 0.0238; in assay [2] it was 0.043; in assay [3], 0.0544; in assay [4], 0.0047; in assay [5], -0.116; in assay [6] it was 0.0292.

Consider `COc1nnc2ccc(N3CCC(c4ccc(OCCN5CCN(C)C(=O)[C@H]5C)cc4)CC3)nn12` [AZD5153] + Cc1c2c(nn1C)CSCc1cc(n(C)n1)CSc1cc(c3ccccc3c1)OCCCc1c(C(=O)O)n(C)c3c-2c(Cl)ccc13 [AZD5991] (first compound max 1 µM, 7x7, partner max 1 µM), for which the Bliss excess in assay [1] was -0.0082; in assay [2] it was 0.0096; in assay [3] it was 0.0069; in assay [4] it was -0.0078; in assay [5] it was -0.0013; in assay [6], -0.112.

For `COc1nnc2ccc(N3CCC(c4ccc(OCCN5CCN(C)C(=O)[C@H]5C)cc4)CC3)nn12` [AZD5153] + Cn1cnc2c(F)c(Nc3ccc(Br)cc3Cl)c(C(=O)NOCCO)cc21 [Selumetinib] (first compound max 1 µM, 7x7, partner max 10 µM), the Bliss excess in assay [1] was -0.0155; in assay [2] it was -0.0277; in assay [3], 0.0646; in assay [4] it was 0.0202; in assay [5], 0.0497; in assay [6], -0.0095.

Take `Cc1c2c(nn1C)CSCc1cc(n(C)n1)CSc1cc(c3ccccc3c1)OCCCc1c(C(=O)O)n(C)c3c-2c(Cl)ccc13` [AZD5991] + C1CN(CCC1(C(=O)N[C@@H](CCO)C2=CC=C(C=C2)Cl)N)C3=NC=NC4=C3C=CN4 [Capivasertib] (first compound max 1 µM, 7x7, partner max 3 µM): the Bliss excess is 0.012 in assay [1]; 0.0003 in assay [2]; -0.0102 in assay [3]; 0.0085 in assay [4]; 0.119 in assay [5]; 0.0007 in assay [6].

`Cc1c2c(nn1C)CSCc1cc(n(C)n1)CSc1cc(c3ccccc3c1)OCCCc1c(C(=O)O)n(C)c3c-2c(Cl)ccc13` [AZD5991] + C=CCn1c(=O)c2cnc(Nc3ccc(N4CCN(C)CC4)cc3)nc2n1-c1cccc(C(C)(C)O)n1 [AZD1775] (first compound max 1 µM, partner max 1 µM): the Bliss excess in assay [1] is 0.0047; in assay [2], -0.0145; in assay [3], 0.0087; in assay [4], 0.0292; in assay [5], -0.0107; in assay [6], 0.045.

`Cc1c2c(nn1C)CSCc1cc(n(C)n1)CSc1cc(c3ccccc3c1)OCCCc1c(C(=O)O)n(C)c3c-2c(Cl)ccc13` [AZD5991] + CC1(C)CCC(CN2CCN(c3ccc(C(=O)NS(=O)(=O)c4ccc(NCC5CCOCC5)c([N+](=O)[O-])c4)c(Oc4cnc5[nH]ccc5c4)c3)CC2)=C(c2ccc(Cl)cc2)C1 [Venetoclax] (first compound max 1 µM, 7x7, partner max 1 µM): the Bliss excess is -0.0246 in assay [1]; 0.107 in assay [2]; -0.0359 in assay [3]; -0.0292 in assay [4]; 0.0003 in assay [5]; 0.0419 in assay [6].

`Cc1c2c(nn1C)CSCc1cc(n(C)n1)CSc1cc(c3ccccc3c1)OCCCc1c(C(=O)O)n(C)c3c-2c(Cl)ccc13` [AZD5991] + CCN(CCO)CCCOc1ccc2c(Nc3cc(CC(=O)Nc4cccc(F)c4)[nH]n3)ncnc2c1 [AZD2811] (first compound max 1 µM, 7x7, partner max 1 µM): the Bliss excess in assay [1] was 0.0357; in assay [2], 0.0657; in assay [3], 0.0586; in assay [4] it was -0.0133; in assay [5], 0.0418; in assay [6], 0.0198.

With `Cc1c2c(nn1C)CSCc1cc(n(C)n1)CSc1cc(c3ccccc3c1)OCCCc1c(C(=O)O)n(C)c3c-2c(Cl)ccc13` [AZD5991] + CN(C)CCCOc1ccc(-c2ccc3ncc4c(c3c2)n(C2CCOCC2)c(=O)n4C)cn1 [AZD0156] (first compound max 1 µM, 7x7, partner max 1 µM), the Bliss excess in assay [1] was -0.0398; in assay [2], -0.0146; in assay [3] it was 0.0114; in assay [4] it was 0.0062; in assay [5] it was 0.016; in assay [6], 0.0531.

As for `Cc1c2c(nn1C)CSCc1cc(n(C)n1)CSc1cc(c3ccccc3c1)OCCCc1c(C(=O)O)n(C)c3c-2c(Cl)ccc13` [AZD5991] + C[C@@H](Nc1cc(F)cc(F)c1)c1cc(C(=O)N(C)C)cc2c(=O)cc(N3CCOCC3)oc12 [AZD8186] (first compound max 1 µM, 7x7, partner max 3 µM), the Bliss excess is 0.0221 in assay [1]; 0.0257 in assay [2]; -0.0268 in assay [3]; 0.023 in assay [4]; -0.0014 in assay [5]; -0.0004 in assay [6].

With `Cc1c2c(nn1C)CSCc1cc(n(C)n1)CSc1cc(c3ccccc3c1)OCCCc1c(C(=O)O)n(C)c3c-2c(Cl)ccc13` [AZD5991] + Cc1cc2ncnn2cc1Nc1ncc2c(n1)n(C1CCOCC1)c(=O)n2C [AZD7648] (first compound max 1 µM, 7x7, partner max 10 µM), the Bliss excess in assay [1] was -0.0408; in assay [2], -0.0101; in assay [3], -0.0487; in assay [4], 0.0141; in assay [5] it was 0.0158; in assay [6] it was -0.0184.

On to `Cc1c2c(nn1C)CSCc1cc(n(C)n1)CSc1cc(c3ccccc3c1)OCCCc1c(C(=O)O)n(C)c3c-2c(Cl)ccc13` [AZD5991] + Cn1cnc2c(F)c(Nc3ccc(Br)cc3Cl)c(C(=O)NOCCO)cc21 [Selumetinib] (first compound max 1 µM, 7x7, partner max 3 µM), for which the Bliss excess was -0.0083 in assay [1]; 0.0056 in assay [2]; -0.0014 in assay [3]; 0.0129 in assay [4]; 0.127 in assay [5]; 0.0173 in assay [6].

On to `C[C@@H]1COCCN1c1cc(C2([S@](C)(=N)=O)CC2)nc(-c2ccnc3[nH]ccc23)n1` [AZD6738] + O=C(c1cc(Cc2n[nH]c(=O)c3ccccc23)ccc1F)N1CCN(C(=O)C2CC2)CC1 [Olaparib] (first compound max 10 µM, 7x7, partner max 10 µM), for which the Bliss excess in assay [1] is -0.0152; in assay [2] it was 0.0682; in assay [3], 0.0052; in assay [4], -0.0255; in assay [5], 0.003; in assay [6], -0.0357.

Take `Cc1cc2ncnn2cc1Nc1ncc2c(n1)n(C1CCOCC1)c(=O)n2C` [AZD7648] + C=CCn1c(=O)c2cnc(Nc3ccc(N4CCN(C)CC4)cc3)nc2n1-c1cccc(C(C)(C)O)n1 [AZD1775] (first compound max 10 µM, partner max 1 µM): the Bliss excess in assay [1] was 0.0097; in assay [2], -0.0515; in assay [3], 0.0177; in assay [4] it was 0.0132; in assay [5], -0.0323; in assay [6] it was -0.0082.

Regarding `Cc1cc2ncnn2cc1Nc1ncc2c(n1)n(C1CCOCC1)c(=O)n2C` [AZD7648] + CCN(CCO)CCCOc1ccc2c(Nc3cc(CC(=O)Nc4cccc(F)c4)[nH]n3)ncnc2c1 [AZD2811] (first compound max 10 µM, 7x7, partner max 1 µM), the Bliss excess in assay [1] was 0.0142; in assay [2], 0.0625; in assay [3], 0.0619; in assay [4], -0.0525; in assay [5], 0.0239; in assay [6], 0.0372.

As to `Cc1cc2ncnn2cc1Nc1ncc2c(n1)n(C1CCOCC1)c(=O)n2C` [AZD7648] + CN(C)CCCOc1ccc(-c2ccc3ncc4c(c3c2)n(C2CCOCC2)c(=O)n4C)cn1 [AZD0156] (first compound max 10 µM, 7x7, partner max 1 µM), the Bliss excess is -0.0133 in assay [1]; 0.0033 in assay [2]; 0.0012 in assay [3]; -0.0168 in assay [4]; -0.0192 in assay [5]; 0.0391 in assay [6].

In the case of `Cc1cc2ncnn2cc1Nc1ncc2c(n1)n(C1CCOCC1)c(=O)n2C` [AZD7648] + C[C@@H]1COCCN1C2=NC(=NC(=C2)C3(CC3)[S@](=N)(=O)C)C4=C5C=CNC5=NC=C4 [AZD6738] (first compound max 10 µM, 7x7, partner max 10 µM), the Bliss excess was 0.0308 in assay [1]; 0.0088 in assay [2]; -0.0085 in assay [3]; 0.022 in assay [4]; 0.0114 in assay [5]; -0.0398 in assay [6].

As to `Cc1cc2ncnn2cc1Nc1ncc2c(n1)n(C1CCOCC1)c(=O)n2C` [AZD7648] + O=C(c1cc(Cc2n[nH]c(=O)c3ccccc23)ccc1F)N1CCN(C(=O)C2CC2)CC1 [Olaparib] (first compound max 10 µM, 7x7, partner max 10 µM), the Bliss excess in assay [1] is -0.0494; in assay [2] it was -0.0603; in assay [3], -0.043; in assay [4], -0.0757; in assay [5] it was -0.0548; in assay [6], -0.0169.

`NC1(C(=O)N[C@@H](CCO)c2ccc(Cl)cc2)CCN(c2ncnc3[nH]ccc23)CC1` [Capivasertib] + CC(=O)c1c(C)c2cnc(Nc3ccc(N4CCNCC4)cn3)nc2n(C2CCCC2)c1=O [Palbociclib] (first compound max 10 µM, 7x7, partner max 10 µM): the Bliss excess was -0.0223 in assay [1]; -0.0936 in assay [2]; -0.0378 in assay [3]; -0.0164 in assay [4]; -0.0329 in assay [5]; -0.0013 in assay [6].
